test system: Rat Aorta; assay: Inhibition of calcium chloride-induced contraction of depolarized vascular smooth muscle segments (rat aorta); format: cell-based, rat (male Sprague-Dawley); details: Rattus norvegicus, at 10^-7 M; 1.0 mM calcium chloride-induced contraction; read-out: Percent Inhibition of Rat Aorta
Method: The property may be observed in a test in which segments of vascular smooth muscle obtained from male Sprague-Dawley rats are suspended in physiological salt solution in a tissue bath instrumented for recording contractions. After the tissue has been equilibrated, washed in calcium-free physiological salt solution and then depolarized, 1.0 mM calcium chloride is re-added to induce contraction. After the contraction has reached a plateau, tissues are washed and a test compound or vehicle is added to determine the effect on a second contraction achieved by the above cyclic protocol. From measuring the initial contraction as well as the second contraction in the presence of the test compound, the extent of inhibition may be calculated. The results of these tests for representative compounds in the compositions of the present invention are seen in the following table. The results are with tests conducted at very low concentrations of 10^-7 M or less.

| SMILES | inhibition at 0.1 µM [%] |
| --- | --- |
| CC(C)N1CCC(C2c3ccccc3C=Cc3ccccc32)CC1 [4-(5H-Dibenzo[a,d]cyclohepten-5-yl)-1-isopropylpiperidine] | 44 |
| C[N+]1([O-])CCC(C2c3ccccc3C=Cc3ccccc32)CC1 (stereo not drawn) [4-(5H-Dibenzo[a,d]cyclohepten-5-yl)-1-methylpiperidine-1-oxide monohydrate] | 17 |
| CN1CCC(C2c3ccccc3C=Cc3ccc(Br)cc32)CC1 (racemic) [4-(3-Bromo-5H-dibenzo[a,d]cyclohepten-5-yl)-1-methylpiperidine, equatorial isomer] | 80 |
| CN1CCC(C2c3ccccc3C=Cc3ccccc32)CC1 [4-(5H-Dibenzo[a,d]cyclohepten-5-yl)-1-methylpiperidine, axial isomer] | 30 |
| C1=Cc2ccccc2C(C2CCNCC2)c2ccccc21 [4-(5H-Dibenzo[a,d]cyclohepten-5-yl)piperidine] | 39 |
| C1=Cc2ccccc2C(C2CCN(C3CCCCC3)CC2)c2ccccc21 [4-(5H-Dibenzo[a,d]cyclohepten-5-yl)-1-cyclohexylpiperidine] | 48 |

same assay, conditions: Rattus norvegicus, at 10^-8 M; 1.0 mM calcium chloride-induced contraction; read-out: Percent Inhibition of Rat Aorta

| SMILES | inhibition at 0.01 µM [%] |
| --- | --- |
| COc1ccc2c(c1)C(C1CCN(C)CC1)c1ccccc1C=C2 (racemic) [4-(3-Methoxy-5H-dibenzo[a,d]cyclohepten-5-yl)-1-methylpiperidine] | 37 |
| CN1CCC(C2c3ccccc3C=Cc3ccccc32)CC1 [4-(5H-Dibenzo[a,d]cyclohepten-5-yl)-1-methylpiperidine, equatorial isomer] | 11 |

same assay, conditions: at 10^-7 M; 1.0 mM calcium chloride-induced contraction

| SMILES | Percent Inhibition of Rat Aorta [%] |
| --- | --- |
| CN1CCC(C2c3ccccc3C=Cc3ccc(Br)cc32)CC1 (single isomer, unassigned; (-)) [5H--eq (-)4-(3-Bromo-5H--dibenzo[a,d]cyclohepten-5-yl)-1-met] [(-)-4-(3-bromo-5H-dibenzo[a,d]cyclohepten-5-yl)-1-methylpiperidine] | 92 |
| CN1CCC(C2c3ccccc3C=Cc3ccc(Br)cc32)CC1 (single isomer, unassigned; (+)) [5H--eq (+)4-(3-Bromo-5H--dibenzo[a,d]cyclohepten-5-yl)-1-met] [(+)-4-(3-bromo-5H-dibenzo[a,d]cyclohepten-5-yl)-1-methylpiperidine] | 22 |
| CN1CCC(C2c3ccccc3C=Cc3ccc(Br)cc32)CC1 (racemic) [5H--ax (±)4-(3-Bromo-5H--dibenzo[a,d]cyclohepten-5-yl)-1-met] [4-(3-Bromo-5H-dibenzo[a,d]cyclohepten-5-yl)-1-methylpiperidine, axial isomer] | 79 |

test system: not listed separately; assay: Isomerization of the 5H axial to the 5H equatorial isomer followed by 1H NMR; format: physicochemical; details: 3.67 milligrams in 1 milliliter CDCl3, heated at 55° C.±1° C.
Method: Isomerization of the 5H axial isomer of 4-(5H-dibenzo[a,d]cyclohepten-5-yl)-1-methylpiperidine to the 5H equatorial isomer was carried out in an NMR tube. 3.67 milligrams of the axial isomer was dissolved in 1 milliliter of CDCl3 at 24° C. and the sample inserted into the probe of a Nicolet NT-360 NMR spectrometer where it was heated at 55° C.±1° C. NMR spectra (^1 H) were obtained every 864 seconds until isomerization to the equatorial isomer was complete as evidenced by the disappearance of the singlet corresponding to the 5H-axial proton and appearance of the 5H-equatorial proton (about 48,727 seconds).

| time until isomerization to the equatorial isomer was complete | SMILES |
| --- | --- |
| about 48,727 seconds | CN1CCC(C2c3ccccc3C=Cc3ccccc32)CC1 [4-(5H-Dibenzo[a,d]cyclohepten-5-yl)-1-methylpiperidine, axial isomer] |

From US4626542A, “4-(5H-dibenzo[a,d]cyclohepten-5-yl)piperidine compounds, pharmaceutical compositions and methods” (Merck & Co., Inc., priority 1984, dated 1986)
